Source: ChEMBL document CHEMBL1127948, “Synthesis and in vitro cytotoxicity of diastereoisomerically modified dolastatin 15 analogues” (Bioorg Med Chem Lett, 1994)

Legend:
Jurkat = assay: In vitro growth factor-independent proliferation against human leukemia T cell line jurkat was determined; assay type: functional, cell-based
Osteoclast-like = assay: In vitro growth factor-dependent proliferation against murine bone marrow cell was determined; assay type: functional, cell-based, Mus musculus
L1210 = assay: In vitro growth factor-independent proliferation against murine leukemia L1210 was determined; assay type: functional, cell-based, Mus musculus
CTLL = assay: In vitro interleukin-2-dependent proliferation of the murine cytotoxlc T cell line (CTLL) was determined; assay type: functional, cell-based, Mus musculus
Lymphoma cell line = assay: Antiproliferative effect against human lymphoma cells was determined; (0.012 to 0.12 nM); assay type: functional, cell-based
[1] = test system: Panel leukemia (Carcinoma cell lines); assay: Antiproliferative effect against continuous human leukemia cell lines and peripheral blood cells from patients with acute myeloid leukemia was determined; (0.1 to 1 nM); assay type: functional, cell-based

Row | SMILES | IC50 (Jurkat) [nM] | IC50 (Osteoclast-like; Mus musculus, Osteoclast-like) [nM] | IC50 (L1210; Mus musculus, L1210) [nM] | IC50 (CTLL; Mus musculus, CTLL) [nM] | IC50 (Osteoclast-like; osteoclast-like) [nM] | IC50 (L1210; l1210) [nM] | IC50 (CTLL; ctll) [nM] | IC50 (Lymphoma cell line) [nM] | IC50 [1] [nM]
1 | COC1=CC(=O)N(C(=O)[C@H](OC(=O)[C@@H]2CCCN2C(=O)[C@@H]2CCCN2C(=O)[C@H](C(C)C)N(C)C(=O)[C@@H](NC(=O)[C@H](C(C)C)N(C)C)C(C)C)C(C)C)[C@@H]1Cc1ccccc1 | 700 | 120 | 1.78 | 400 |  |  |  |  | 
2 | COC1=CC(=O)N(C(=O)[C@H](OC(=O)[C@@H]2CCCN2C(=O)[C@@H]2CCCN2C(=O)[C@H](C(C)C)N(C)C(=O)[C@@H](NC(=O)[C@H](C(C)C)N(C)C)C(C)C)C(C)C)[C@H]1Cc1ccccc1 (stereo in doubt; form 1) | 10 | 40 | 0.3 | 8 |  |  |  |  | 
3 | COC1=CC(=O)N(C(=O)[C@H](OC(=O)[C@@H]2CCCN2C(=O)[C@@H]2CCCN2C(=O)[C@H](C(C)C)N(C)C(=O)[C@@H](NC(=O)[C@H](C(C)C)N(C)C)C(C)C)C(C)C)[C@H]1Cc1ccccc1 (stereo in doubt; form 2) |  |  |  |  | 50 | 0.31 | 10 |  | 
4 | COC1=CC(=O)N(C(=O)[C@@H](OC(=O)[C@@H]2CCCN2C(=O)[C@@H]2CCCN2C(=O)[C@H](C(C)C)N(C)C(=O)[C@@H](NC(=O)[C@H](C(C)C)N(C)C)C(C)C)C(C)C)[C@H]1Cc1ccccc1 [DOLASTATIN 15] | 5 | 17 | 0.15 | 3 |  |  |  | 0.012 | 0.1
